Data: publication PMC9743095 (Journal of Medicinal Chemistry, 2022)

What was measured:
Plasma stability [1] = format: in vitro ADME; settings: for half-life at 24 h, 20 µM: human, plasma
Procedure: […] After incubation, 100 μL of each sample was taken and 300 μL of 100% methanol was added and left on ice for 30 min. After 30 min, the mixture was centrifuged (14 000 rpm, 4 °C, 10 min), and the supernatant was transferred to new tubes and evaporated under SpeedVac. Then, the dried extract was reconstituted in 100 μL of 10% acetonitrile, then transferred to LC-MS vials, and 10 μL was injected into the UPLC-MS/MS system.

Plasma stability [2] = format: in vitro ADME; settings: mouse plasma
Procedure: Plasma samples (10 mL of human, beagle dog, mouse, or rats from Sera laboratories, U.K.) were treated with and without 1 μM of EHNA, after which 20 μM concentration of each drug (3′dA and ProTides) was added and incubated for 2 h at 37 °C with 5% CO2. After incubation, 100 μL of each sample was taken and 300 μL of 100% methanol was added and left on ice for 30 min. After 30 min, the mixture was centrifuged (14 000 rpm, 4 °C, 10 min), and the supernatant was transferred to new tubes and evaporated under SpeedVac. Then, the dried extract was reconstituted in 100 μL of 10% acetonitrile, then transferred to LC-MS vials, and 10 μL was injected into the UPLC-MS/MS system.

[3] = tested on: KG1a leukemic stem cells (Lin–/CD34+/CD38–/CD123+); assay: Leukemic stem cell targeting in KG1a cultures (flow cytometry); format: cell-based, human; settings: 72 h, LSC vs bulk tumor
Procedure: The acute myeloid leukemia (AML) KG1a cell line was maintained in RPMI medium (Invitrogen, Paisley, U.K.) supplemented with 100 units/mL penicillin, 100 μg/mL streptomycin, and 20% FBS. […] In addition, control cultures were carried out to which no drug was added. The cells were subsequently harvested by centrifugation and were analyzed by flow cytometry using the Annexin V assay. All experiments were performed in triplicate. LC50 values (the concentration of compound required to kill 50% of the cells in culture) were calculated by nonlinear regression modeling using GraphPad Prism software and are shown as mean ± standard error of the mean (SEM) for each replicate data set.
Cells were then harvested, and KG1a cells were labeled with anti-CD34 (FITC), anti-CD38 (PE), and anti-CD123 (PERCP cy5). The subpopulation expressing a leukemic stem cell (LSC) phenotype was subsequently identified and was expressed as a percentage of all viable cells left in the culture. The percentages of stem cells remaining were then plotted on a dose–response graph, and the effects of the ProTides were compared with the parental nucleoside to determine if they preferentially target cancer stem cells

carboxypeptidase Y = target: T1, carboxypeptidase Y (Saccharomyces cerevisiae, UniProt P00729); assay: Carboxypeptidase Y assay (31P NMR); format: in vitro ADME; settings: acetone-d6/Trizma buffer pH 7.6, 31P NMR
T1 construct: purchased Sigma-Aldrich
Procedure: ProTides 7a (5 mg, ±0.008 mmol) was dissolved in 150 μL of acetone-d6, and 300 μL of trizma buffer (pH 7.6) was added. A ^31P NMR (202 MHz, 64–128 scans) was conducted at this stage as a reference (blank, t = 0). To this mixture, 130 μL of a stock solution of carboxypeptidase enzyme (purchased from Sigma-Aldrich, >50 unit/mg, dissolved in trizma buffer 7.6 pH to a concentration of 50 units/mL, EC 3.4.16.1) was added. ^31P NMR (128 scans) were carried out with 1 min of delay between experiments for 14 h at 25 °C.

[4] = tested on: CEM, K562, HL-60, and CRL cell lines; assay: Intracellular 3′-dATP quantification, cell lines together; format: cell-based, human
Procedure: HL-60 (ATCC CCL-240), K562 (ATCC CCL-243), CCRF-CEM (ATCC CRM-CCL-119), and RL (ATCC CRL-2261) leukemia cell lines were obtained from the American Type Culture Collection (ATCC), Middlesex. HL-60 and K562 cell lines are deoxynucleotidyl transferase-negative (TdT^–ve), whereas CCRF-CEM cell line is TdT^+ve. They were cultured in RPMI-1640 medium (Sigma-Aldrich, U.K.), which were supplemented with 10% fetal bovine serum (FBS) (PAA Laboratories), 1% amphotericin B (5.5 mL), and 1% penicillin/streptomycin (5.5 mL) (PAA Laboratories) and grown in flasks at 37 °C in an incubator with 5% CO2. […]
The analytes were resolved using an ultraperformance liquid chromatography system (Accela UPLC, Thermo Scientific, U.K.) equipped with a Biobasic A × 5 μm, 50 × 2.1 mm column (Thermo Electron Corporation, Murrieta, CA) and mobile phase consisting of a mixture of 10 mM NH4Ac in ACN/H2O (30:70 v/v), pH 6.0 (A), and 1 mM NH4Ac in ACN/H2O (30:70 v/v), pH 10.5 (B). […] Eluting compounds of interest were detected using a triple-stage quadrupole Vantage mass spectrometry system (Thermo Scientific, U.K.) equipped with an electrospray ion source. Samples were analyzed in the Multiple Reaction Monitoring, negative-ion modes at a spray voltage of 3000 V. Nitrogen was used as sheath and auxiliary gas at flow rates of 50 and 20 arbitrary units, respectively. […]

T1 sequence (P00729 112-532, species assumed): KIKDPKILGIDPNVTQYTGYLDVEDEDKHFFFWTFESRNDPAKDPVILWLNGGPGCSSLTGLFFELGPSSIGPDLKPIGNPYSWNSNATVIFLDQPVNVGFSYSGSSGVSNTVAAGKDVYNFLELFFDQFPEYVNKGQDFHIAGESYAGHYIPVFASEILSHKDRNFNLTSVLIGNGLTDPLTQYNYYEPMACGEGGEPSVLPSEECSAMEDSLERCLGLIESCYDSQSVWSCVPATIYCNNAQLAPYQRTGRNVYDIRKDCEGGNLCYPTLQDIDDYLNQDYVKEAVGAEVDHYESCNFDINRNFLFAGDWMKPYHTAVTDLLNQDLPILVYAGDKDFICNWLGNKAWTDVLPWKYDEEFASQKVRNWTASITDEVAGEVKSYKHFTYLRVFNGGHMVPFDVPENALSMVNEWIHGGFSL

Row | SMILES | remaining after 24 h (Plasma stability [1]; human plasma, with EHNA) [%] | time until completely metabolized (Plasma stability [1]; human plasma, without EHNA) [h] | half-life at 24 h, 20 µM (Plasma stability [1]; with EHNA) [h] | half-life at 24 h, 20 µM (Plasma stability [1]; without EHNA) [h] | half-life at 20 μM (Plasma stability [2]) [h] | effect on proportion of leukemic stem cells (LSCs) [3] | concentration detected after 30 s of incubation (Plasma stability [1]; human plasma) [ng/mL] | change in plasma concentration (Plasma stability [1]; human plasma, up to 4 h) | time to complete conversion into aminoacyl phosphoramidate ester II (carboxypeptidase Y) [h] | concentration detected after 30 s of incubation (Plasma stability [2]) [ng/mL] | effect of hENT1, AK, and ADA inhibitors on intracellular 3′-dATP levels [4]
1 | Nc1ncnc2c1ncn2[C@@H]1O[C@H](CO)C[C@H]1O [3′-dA, 3′-Deoxyadenosine, reference compound] | 42.1 | 4 | 4.2 | 1.03 | 0.417 | increased selectivity and potency against the putative leukemic stem cells | – | – | – | – | –
2 | C[C@H](NP(=O)(OC[C@@H]1C[C@@H](O)[C@H](n2cnc3c(N)ncnc32)O1)Oc1ccccc1)C(=O)OCc1ccccc1 (stereo partly drawn) [Compound 7a, (Rp)- and (Sp)-3′-Deoxyadenosine 5′-O-phenyl-(benzoxy-L-alaninyl)-phosphate] | – | – | – | – | – | significantly reducing the LSC population to a greater extent than the parent nucleoside at concentrations above 1 μM | 10000 | no change in plasma concentration | 1 | 0.5 | did not affect
